Laboratory results published in ChEMBL document CHEMBL1201862, “PubChem BioAssay data set” (2004).
Calls of active or inactive are those of the source.

What was measured:
[1] = NIH3T3 cell viability loss – ATP luminescence, mouse fibroblasts, counter-screen, dose response (AID 2010); assay type: functional, cell-based;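 also: cells exposed to compound for about 90 hours before reading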
Candida albicans [2] = experiment: antifungal activity against resistant Candida strain – CaCi-8, fluconazole, Alamar Blue, dry powder, dose response (AID 488807); assay type: functional, organism-based
Candida albicans [3] = experiment: fluconazole-resistant Candida strain growth inhibitors – CaCi-8 strain, dry powder, set 4, dose response (AID 488950); assay type: functional, organism-based
Candida albicans [4] = experiment: C. albicans growth inhibition with fluconazole – CaCi-2 strain, Alamar Blue, dry powder, set 4, dose response (AID 488943); assay type: functional, organism-based
NIH3T3 = experiment: mammalian cell viability counter-check – Alamar Blue, fluconazole, dry powder, cytotoxicity control for antifungal drug resistance project, dose response (AID 488809); assay type: functional, cell-based; conditions: Mus musculus
[5] = Trypanosoma cruzi growth suppression in host cells – NIH3T3 host cells, beta-gal luminescence, confirmation (AID 2044); assay type: functional, cell-based;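 also: intracellular parasites grown in NIH/3T3 mouse fibroblasts as host cells; luminescent beta-galactosidase reporter signal from transgenic T. cruzi replicating inside host cells; inhibitors lower the luminescence signal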
DNA topoisomerase = DNA topoisomerase (Yersinia pestis, UniProt A0A2S9PM60); experiment: Yersinia topoisomerase I cleavage product accumulation – biochemical, cherry-pick, dose response (AID 588525)
[6] = target: T1, Polyadenylate-binding protein 1 (Homo sapiens, UniProt P11940); experiment: MLLE domain peptide-binding blockers, IC50 – biochemical, fluorescence polarization, FITC-PAM2 peptide, dose response (AID 602259); assay type: functional; conditions: read-out: IC50_Mean
Beta-galactosidase = Beta-galactosidase (Escherichia coli, UniProt Q8VNN2); experiment: PubChem AID 485352; assay type: functional
[7] = target: T2, Type-1 angiotensin II receptor (Homo sapiens, UniProt P30556); experiment: antagonism of angiotensin II type 1 receptor – cell-based, uHTS hits, selectivity assay for APJ receptor antagonist project, dose response (AID 463214); assay type: functional;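 also: antagonist potency against angiotensin II stimulated AT1 response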
T2 sequence (P30556 whole entry): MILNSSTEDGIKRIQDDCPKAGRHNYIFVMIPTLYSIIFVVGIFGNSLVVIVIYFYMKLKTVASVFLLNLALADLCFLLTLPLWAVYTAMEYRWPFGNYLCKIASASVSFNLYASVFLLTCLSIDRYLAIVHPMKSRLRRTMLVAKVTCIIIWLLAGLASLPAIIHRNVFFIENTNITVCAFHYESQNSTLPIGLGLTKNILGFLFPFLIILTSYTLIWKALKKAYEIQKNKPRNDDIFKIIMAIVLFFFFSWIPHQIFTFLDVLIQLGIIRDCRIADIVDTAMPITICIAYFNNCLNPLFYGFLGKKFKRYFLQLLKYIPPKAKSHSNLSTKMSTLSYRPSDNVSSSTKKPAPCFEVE

[8] = target: T1, Polyadenylate-binding protein 1; experiment: MLLE binding blockers, Cy5 peptide tracer – biochemical, fluorescence polarization, Cy5-PAM2 peptide, secondary, miRNA deadenylation inhibitor project, dose response (AID 602260); assay type: functional; conditions: read-out: IC50_Mean
[9] = target: T3, Endoribonuclease toxin MazF (Escherichia coli K-12, UniProt P0AE70); experiment: substrate-only fluorescence increase artefacts – biochemical, single-stranded RNase substrate, counter-screen for MazEF activator project, dose response (AID 588502); assay type: functional
[10] = target: T3, Endoribonuclease toxin MazF; experiment: activation of MazEF endoribonuclease cleavage – biochemical, fluorescence, single-stranded RNA substrate, uHTS hits, dose response (AID 588481); assay type: functional
[11] = Luminescence Cell-Based Dose Response Follow up to Identify Inhibitors of Platelet Dense Granule Release. [Related pubchem assays (depositor defined):AID1663, AID1678, AID2398]; assay type: functional
HEK293 [12] = experiment: SAR Analysis of small molecule inhibitors of T-cell specific antigen receptor-induced NF-kB activation in a HEK-293T cell line using a luminescence assay. [Related pubchem assays (depositor defined):AID435003, AID435012, AID489026]; assay type: functional, cell-based; conditions: Homo sapiens
HEK293 [13] = experiment: HEK293T cell viability loss, resazurin readout – resazurin fluorescence, cytotoxicity control for NF-kB activator project, SAR follow-up (AID 493251); assay type: functional, cell-based; conditions: Homo sapiens
Jurkat = experiment: SAR Analysis of small molecule inhibitors of T-cell specific antigen receptor-induced NF-kB activation in a Jurkat cell line using a luminescence assay. [Related pubchem assays (depositor defined):AID435003, AID435012, AID465]; assay type: functional, cell-based; conditions: Homo sapiens

T1 sequence (P11940 whole entry, the tested form may be a part): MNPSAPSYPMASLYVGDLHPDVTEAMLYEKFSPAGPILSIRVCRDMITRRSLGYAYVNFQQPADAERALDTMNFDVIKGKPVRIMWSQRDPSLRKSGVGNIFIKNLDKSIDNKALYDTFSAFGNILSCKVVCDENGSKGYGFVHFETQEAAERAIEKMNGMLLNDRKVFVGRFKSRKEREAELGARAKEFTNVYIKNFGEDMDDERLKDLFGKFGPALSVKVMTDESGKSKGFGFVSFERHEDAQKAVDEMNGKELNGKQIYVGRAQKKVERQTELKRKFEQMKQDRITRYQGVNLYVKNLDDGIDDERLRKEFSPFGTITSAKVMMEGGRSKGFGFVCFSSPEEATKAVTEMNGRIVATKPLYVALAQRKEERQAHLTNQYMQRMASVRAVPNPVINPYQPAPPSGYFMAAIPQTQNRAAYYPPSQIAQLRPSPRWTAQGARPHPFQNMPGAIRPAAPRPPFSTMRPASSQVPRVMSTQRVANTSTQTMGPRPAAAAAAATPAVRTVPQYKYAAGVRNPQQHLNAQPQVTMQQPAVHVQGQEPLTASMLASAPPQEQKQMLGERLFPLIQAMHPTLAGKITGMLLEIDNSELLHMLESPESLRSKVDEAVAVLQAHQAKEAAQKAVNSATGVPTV
T3 sequence (P0AE70 whole entry): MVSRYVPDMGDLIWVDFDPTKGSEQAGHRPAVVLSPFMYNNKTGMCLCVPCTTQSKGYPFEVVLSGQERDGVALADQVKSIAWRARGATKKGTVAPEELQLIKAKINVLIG
Sequence of Beta-galactosidase (Q8VNN2 whole entry): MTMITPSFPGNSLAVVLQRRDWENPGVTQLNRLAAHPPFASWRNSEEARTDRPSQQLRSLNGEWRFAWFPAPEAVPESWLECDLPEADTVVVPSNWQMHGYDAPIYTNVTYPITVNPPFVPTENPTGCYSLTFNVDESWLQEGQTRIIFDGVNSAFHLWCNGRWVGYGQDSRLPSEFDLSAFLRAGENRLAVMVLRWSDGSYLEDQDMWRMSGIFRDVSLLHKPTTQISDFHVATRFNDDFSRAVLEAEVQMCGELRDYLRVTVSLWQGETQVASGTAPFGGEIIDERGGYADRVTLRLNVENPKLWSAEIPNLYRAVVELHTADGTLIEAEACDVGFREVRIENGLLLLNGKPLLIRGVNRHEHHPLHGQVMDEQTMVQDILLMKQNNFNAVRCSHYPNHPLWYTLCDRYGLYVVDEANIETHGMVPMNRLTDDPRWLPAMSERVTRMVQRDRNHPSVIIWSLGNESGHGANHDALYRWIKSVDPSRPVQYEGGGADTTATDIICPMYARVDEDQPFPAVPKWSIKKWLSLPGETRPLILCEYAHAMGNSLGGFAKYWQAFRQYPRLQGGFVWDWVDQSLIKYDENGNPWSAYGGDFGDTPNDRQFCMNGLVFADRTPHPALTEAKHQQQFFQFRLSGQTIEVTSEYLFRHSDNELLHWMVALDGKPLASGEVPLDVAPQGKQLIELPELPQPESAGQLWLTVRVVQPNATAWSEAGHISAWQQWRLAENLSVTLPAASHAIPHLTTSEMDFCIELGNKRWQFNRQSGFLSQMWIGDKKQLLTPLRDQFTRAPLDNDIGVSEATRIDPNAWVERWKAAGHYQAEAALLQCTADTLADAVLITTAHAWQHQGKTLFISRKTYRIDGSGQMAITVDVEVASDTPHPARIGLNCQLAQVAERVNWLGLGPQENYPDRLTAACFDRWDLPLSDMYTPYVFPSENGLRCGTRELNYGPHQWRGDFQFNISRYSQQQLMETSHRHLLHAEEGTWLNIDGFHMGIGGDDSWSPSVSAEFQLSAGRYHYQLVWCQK
Sequence of DNA topoisomerase (A0A2S9PM60 whole entry, the tested form may be a part): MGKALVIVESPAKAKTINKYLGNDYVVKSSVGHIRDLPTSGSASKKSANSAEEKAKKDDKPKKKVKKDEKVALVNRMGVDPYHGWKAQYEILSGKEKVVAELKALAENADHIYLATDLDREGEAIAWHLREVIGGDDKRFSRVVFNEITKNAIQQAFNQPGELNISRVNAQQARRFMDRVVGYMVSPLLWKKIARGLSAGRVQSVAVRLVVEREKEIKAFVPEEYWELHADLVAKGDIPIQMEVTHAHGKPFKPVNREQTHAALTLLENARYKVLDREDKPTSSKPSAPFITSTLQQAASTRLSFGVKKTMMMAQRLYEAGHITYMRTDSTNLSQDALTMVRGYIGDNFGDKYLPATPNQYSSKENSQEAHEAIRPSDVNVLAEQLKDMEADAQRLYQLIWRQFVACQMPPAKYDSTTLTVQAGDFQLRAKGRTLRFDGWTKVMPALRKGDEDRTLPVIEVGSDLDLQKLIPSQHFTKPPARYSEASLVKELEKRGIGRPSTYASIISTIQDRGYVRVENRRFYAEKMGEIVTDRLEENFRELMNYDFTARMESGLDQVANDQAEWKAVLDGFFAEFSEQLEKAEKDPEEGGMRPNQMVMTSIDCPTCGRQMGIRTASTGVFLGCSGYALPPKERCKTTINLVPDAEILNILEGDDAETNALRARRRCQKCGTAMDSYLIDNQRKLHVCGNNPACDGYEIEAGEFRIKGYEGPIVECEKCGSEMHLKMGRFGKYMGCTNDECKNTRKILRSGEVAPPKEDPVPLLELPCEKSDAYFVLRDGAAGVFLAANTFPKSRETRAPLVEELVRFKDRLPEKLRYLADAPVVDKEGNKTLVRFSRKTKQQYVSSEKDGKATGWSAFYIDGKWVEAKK

O=C(Nc1ccc(C(F)(F)F)cc1)N1CCN(c2ccnc3cc(Cl)ccc23)CC1
EC50 [1]: > 60 µM (not active)
AC50 (Candida albicans [2]): 0.404 µM (active)
AC50 (Candida albicans [3]): 9.05 µM (active)
AC50 (Candida albicans [4]): 4.73 µM (active)
AC50 (NIH3T3): 7.27 µM (active)
EC50 [5]: 3.22 µM (active)

Cc1cc(C(=O)COC(=O)Cc2nnc(O)c3ccccc23)c(C)n1-c1cccc(C(F)(F)F)c1
AC50 (DNA topoisomerase): 11.4 µM (active)

Cc1c(Cl)cccc1NC(=S)NNc1ncc(C(F)(F)F)cc1Cl
IC50 [6]: > 66 µM (inactive)
EC50 (Beta-galactosidase): > 40 µM (inactive)
IC50 [7]: 11.9 µM (active)
IC50 [8]: > 66 µM (inactive)

CCOC(=O)c1c(N=C(S)Nc2ccc(Cl)cc2)sc2c1CCN(C)C2
EC50 [9]: > 99 µM (inactive)
EC50 [10]: > 99 µM (inactive)

CC(=O)N/N=C(\C)c1ccc(NC(=O)C2CC2)cc1
EC50 [11]: 500 µM (inactive)

COc1cccc(C(=O)Nc2ccc3[nH]c(-c4cccc(OC)c4)cc(=O)c3c2)c1
IC50 (HEK293 [12]): > 79 µM (inactive)
IC50 (HEK293 [13]): 42.2 µM (inactive)
IC50 (Jurkat): > 79 µM (inactive)
